Active and inactive are the calls of the source. The rule behind the calls is not given here.
Assays:
[1] = molecular target: Glycogen synthase kinase-3 beta (Homo sapiens, UniProt P49841); assay: Inhibition of GSK3beta (unknown origin) activity assessed as fluorescence intensity by ADP-Glo Kinase Assay
[2] = molecular target: Glutaminyl-peptide cyclotransferase (Homo sapiens, UniProt Q16769); assay: Inhibition of human glutaminyl cyclase activity assessed as fluorescence using H-Gln-AMC substrate
Glutaminyl-peptide cyclotransferase, sequence (Q16769 whole entry): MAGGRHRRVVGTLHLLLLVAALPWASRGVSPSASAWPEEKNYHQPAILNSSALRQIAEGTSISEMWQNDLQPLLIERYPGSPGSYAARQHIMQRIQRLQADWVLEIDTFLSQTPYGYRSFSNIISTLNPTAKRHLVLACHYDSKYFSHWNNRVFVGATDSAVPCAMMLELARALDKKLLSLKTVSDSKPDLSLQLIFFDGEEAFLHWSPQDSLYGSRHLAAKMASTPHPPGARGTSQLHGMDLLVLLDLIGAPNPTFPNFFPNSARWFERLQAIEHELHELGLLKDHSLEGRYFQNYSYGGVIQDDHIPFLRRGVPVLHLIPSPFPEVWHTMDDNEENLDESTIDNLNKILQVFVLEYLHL

[3] = In vivo inhibition of GSK3beta activity in cortex region of 3 x Tg-AD mouse model at 8 mg/kg, ip every 48 hrs once for 45 days by Western blot analysis relative to control; format: functional; design: scale not given: the % may be the effect or the level left; conditions: time 45 day
[4] = organism: Mus musculus; conditions: dose 8.0 mg/kg, route ip, time 45.0 day

Glycogen synthase kinase-3 beta, sequence (P49841 whole entry): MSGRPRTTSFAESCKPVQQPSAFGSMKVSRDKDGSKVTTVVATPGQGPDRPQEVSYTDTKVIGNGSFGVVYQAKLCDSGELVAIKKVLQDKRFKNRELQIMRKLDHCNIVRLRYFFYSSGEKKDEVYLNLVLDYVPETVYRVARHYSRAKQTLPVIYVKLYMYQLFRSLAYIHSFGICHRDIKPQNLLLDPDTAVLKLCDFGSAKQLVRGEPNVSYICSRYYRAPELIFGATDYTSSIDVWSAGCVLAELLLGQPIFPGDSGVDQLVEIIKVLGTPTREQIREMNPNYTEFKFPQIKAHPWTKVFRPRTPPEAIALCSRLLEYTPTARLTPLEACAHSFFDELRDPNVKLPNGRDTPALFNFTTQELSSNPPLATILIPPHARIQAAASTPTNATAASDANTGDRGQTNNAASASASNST

SMILES	IC50 [1] [µM]	IC50 [2] [µM]	Activity [3] [%]	inhibition [4]
COc1ccc2c(c1)c(C1=C(c3ccccc3C)C(=O)NC1=O)cn2CCCn1ccnc1	8.01	4.34	–	–
COc1ccc2c(c1)c(C1=C(c3ccccc3[N+](=O)[O-])C(=O)NC1=O)cn2CCCn1ccnc1	0.034	9.91	–	–
Cc1ccc2c(c1)c(C1=C(c3ccccc3[N+](=O)[O-])C(=O)NC1=O)cn2CCCn1ccnc1	8.15	3.62	–	–
COc1ccc2c(c1)c(C1=C(c3ccccc3F)C(=O)NC1=O)cn2CCCn1ccnc1	20.8	3.65	–	–
O=C1NC(=O)C(c2cn(CCCn3ccnc3)c3cc(Br)ccc23)=C1c1ccc2ccccc2c1	0.1	3.98	–	–
COc1ccccc1C1=C(c2cn(CCCn3ccnc3)c3ccc(C)cc23)C(=O)NC1=O	0.065	8.12	–	–
COc1ccc2c(c1)c(C1=C(c3ccccc3OC)C(=O)NC1=O)cn2CCCn1ccnc1	19.8	2.44	–	–
Cc1ccc2c(c1)c(C1=C(c3ccc4ccccc4c3)C(=O)NC1=O)cn2CCCn1ccnc1	5.14	3.44	–	–
COc1ccc(C2=C(c3cn(CCCn4ccnc4)c4cc(C)ccc34)C(=O)NC2=O)cc1	0.097	7.01	–	–
COc1ccc2c(C3=C(c4ccccc4F)C(=O)NC3=O)cn(CCCn3ccnc3)c2c1	0.011	10.8	–	–
COc1ccccc1C1=C(c2cn(CCCn3ccnc3)c3ccccc23)C(=O)NC1=O	19	7.32	–	–
O=C1NC(=O)C(c2cn(CCCn3ccnc3)c3ccccc23)=C1c1c[nH]c2ccccc12	22.8	4.27	–	–
COc1ccc(C2=C(c3cn(CCCn4ccnc4)c4ccccc34)C(=O)NC2=O)cc1	0.04	7.46	–	–
O=C1NC(=O)C(c2cn(CCCn3ccnc3)c3ccccc23)=C1c1ccccc1	0.014	2.8	–	–
O=C1NC(=O)C(c2cn(CCCn3ccnc3)c3ccccc23)=C1c1ccccc1[N+](=O)[O-]	35.1	2.26	–	–
Cc1cc(C)c(C2=C(c3cn(CCCn4ccnc4)c4ccc(Br)cc34)C(=O)NC2=O)c(C)c1	0.11	2.34	–	–

SMILES	IC50 [1] [µM]	IC50 [2] [µM]	Activity [3] [%]	inhibition [4]
Cc1ccc2c(C3=C(c4ccccc4[N+](=O)[O-])C(=O)NC3=O)cn(CCCn3ccnc3)c2c1	0.1	69.1	–	–
Cc1ccc2c(c1)c(C1=C(c3ccccc3C)C(=O)NC1=O)cn2CCCn1ccnc1	0.073	3.84	–	–
O=C1NC(=O)C(c2cn(CCCn3ccnc3)c3ccccc23)=C1c1ccc2ccccc2c1	9.19	3.51	–	–
Cc1ccccc1C1=C(c2cn(CCCn3ccnc3)c3ccccc23)C(=O)NC1=O	26.7	4.18	–	–
Cc1ccc2c(C3=C(c4ccc5ccccc5c4)C(=O)NC3=O)cn(CCCn3ccnc3)c2c1	0.14	10.8	–	–
COc1ccc(C2=C(c3cn(CCCn4ccnc4)c4ccc(OC)cc34)C(=O)NC2=O)cc1	0.014	5.9	–	–
O=C1NC(=O)C(c2cn(CCCn3ccnc3)c3ccccc23)=C1c1ccccc1F	17.7	2.37	–	–
COc1ccccc1C1=C(c2cn(CCCn3ccnc3)c3cc(Br)ccc23)C(=O)NC1=O	0.021	21.7	–	–
COc1ccc2c(c1)c(C1=C(c3ccc4ccccc4c3)C(=O)NC1=O)cn2CCCn1ccnc1	0.059	4.97	–	–
O=C1NC(=O)C(c2cn(CCCn3ccnc3)c3ccc(Br)cc23)=C1c1cc(C(F)(F)F)cc(C(F)(F)F)c1	0.59	6.88	–	–
Cc1ccccc1C1=C(c2cn(CCCn3ccnc3)c3cc(Br)ccc23)C(=O)NC1=O	0.14	3.85	–	–
COc1ccc(C2=C(c3cn(CCCn4ccnc4)c4ccc(Br)cc34)C(=O)NC2=O)cc1OC	0.051	3.16	–	–
O=C1NC(=O)C(c2cn(CCCn3ccnc3)c3ccccc23)=C1c1ccc(F)cc1	0.057	1.34	73.4	Active
O=C1NC(=O)C(c2cn(CCCn3ccnc3)c3ccc(Br)cc23)=C1c1cc(F)c(F)cc1F	0.12	2.35	–	–
Cc1ccc2c(c1)c(C1=C(c3ccccc3F)C(=O)NC1=O)cn2CCCn1ccnc1	47.1	3.39	–	–

The next lines start with results.

IC50 [1] [µM]	IC50 [2] [µM]	SMILES	Activity [3] [%]	inhibition [4]
0.032	4.7	O=C1NC(=O)C(c2cn(CCCn3ccnc3)c3ccc(Br)cc23)=C1c1ccccc1F	–	–
0.23	2.59	COc1ccc(C2=C(c3cn(CCCn4ccnc4)c4cc(Br)ccc34)C(=O)NC2=O)cc1	–	–
0.044	2.51	O=C1NC(=O)C(c2cn(CCCn3ccnc3)c3ccc(Br)cc23)=C1c1ccc2c(c1)OCO2	–	–
0.087	5.12	Cc1ccccc1C1=C(c2cn(CCCn3ccnc3)c3ccc(Br)cc23)C(=O)NC1=O	–	–
0.06	4.77	O=C1NC(=O)C(c2cn(CCCn3ccnc3)c3cc(Br)ccc23)=C1c1ccccc1F	–	–
0.19	2.08	Cc1ccc(C2=C(c3cn(CCCn4ccnc4)c4ccc(Br)cc34)C(=O)NC2=O)cc1	–	–
23.3	4.36	Cc1ccc2c(c1)c(C1=C(c3ccc(F)cc3)C(=O)NC1=O)cn2CCCn1ccnc1	–	–
0.069	1.76	O=C1NC(=O)C(c2cn(CCCn3ccnc3)c3ccc(Br)cc23)=C1c1ccccc1	–	–
0.38	3.44	Cc1ccc(C2=C(c3cn(CCCn4ccnc4)c4cc(Br)ccc34)C(=O)NC2=O)cc1	–	–
0.099	9	COc1ccc2c(c1)c(C1=C(c3ccc(C)cc3)C(=O)NC1=O)cn2CCCn1ccnc1	–	–
0.14	2.55	O=C1NC(=O)C(c2cn(CCCn3ccnc3)c3ccc(Br)cc23)=C1c1ccc(F)cc1	–	–
0.09	1.04	O=C1NC(=O)C(c2cn(CCCn3ccnc3)c3ccc(Br)cc23)=C1c1cccs1	–	–
5.2	6.62	COc1ccccc1C1=C(c2cn(CCCn3ccnc3)c3ccc(Br)cc23)C(=O)NC1=O	–	–
0.11	2.33	COc1ccc(C2=C(c3cn(CCCn4ccnc4)c4ccc(Br)cc34)C(=O)NC2=O)cc1	–	–
0.048	11.9	Cc1ccc(C2=C(c3cn(CCCn4ccnc4)c4cc(C)ccc34)C(=O)NC2=O)cc1	–	–
15.4	4.34	Cc1ccc(C2=C(c3cn(CCCn4ccnc4)c4ccccc34)C(=O)NC2=O)cc1	–	–
0.72	2.81	O=C1NC(=O)C(c2cn(CCCn3ccnc3)c3cc(Br)ccc23)=C1c1ccc(F)cc1	–	–
0.15	0.36	COc1ccc2c(c1)c(C1=C(c3ccc(F)cc3)C(=O)NC1=O)cn2CCCn1ccnc1	–	–
0.42	8.17	CC(C)(C)c1ccc(C2=C(c3cn(CCCn4ccnc4)c4ccc(Br)cc34)C(=O)NC2=O)cc1	–	–
0.069	2.98	O=C1NC(=O)C(c2cn(CCCn3ccnc3)c3ccc(Br)cc23)=C1c1ccc2ccccc2c1	–	–
19.9	6.13	COc1ccc(C2=C(c3cn(CCCn4ccnc4)c4ccc(C)cc34)C(=O)NC2=O)cc1	–	–
0.066	4.28	O=C1NC(=O)C(c2cn(CCCn3ccnc3)c3ccc(Br)cc23)=C1c1ccccc1[N+](=O)[O-]	–	–
7.75	5.47	Cc1ccc(C2=C(c3cn(CCCn4ccnc4)c4ccc(C)cc34)C(=O)NC2=O)cc1	–	–
